From patent US4442084A, “Analgesic and myotonolytic preparations” (Sandoz Ltd., priority 1979, dated 1984)
Like-named read-outs stand apart in the source and are kept apart here.

Assays:
[1] = Test for synergism: analgesia 3 hours after oral co-administration, adjuvans arthritis pain test on the rat; assay type: in vivo, rat (male OFA)
Experimental: In order to establish the presence or absence of synergism the basic analgesic test described above is employed, with analgesia measured three hours after administration of the test substance. Varying proportions of the two test-substance components are used, in fixed dose relationships, based upon the ED50 values previously established for the individual components. The degree of activity is then presented graphically. The test components are administered orally in tragacanth suspension and 5 to 15 animals employed per test run. The two test-components are administered in the following dose relationship: […]
Thus three basic curves may be obtained as shown diagramatically in FIG. 1 in which a curve x represents potentiation (i.e. super-additive synergism), a curve y represents additive synergism and a curve z represents antagonism.

[2] = Basic analgesic test: adjuvans arthritis pain test on the rat, oral administration; assay type: in vivo, rat (male OFA); conditions: for ED50: Rattus norvegicus, po, individual component
Experimental: J. of Pharmacology 31, 207-215 (1975)], e.g. as follows: […] This induces a secondary arthritis of the right hind-paw within the course of the next two or more days. The test for analgesic effectiveness is carried out 16 to 18 days later. A control measurement is carried out 30 minutes prior to administration of the test-substance, by flexing the ankle-joint of the right hind paw three times and recording the number of vocalisations (pain-reaction). […] The confidence limits are determined according to the method of […] Wilcoxon. All tests are carried out blind, employing 5 to 15 animals per test substance.

[3] = 1 hour after administration, read-out: ED50 at 1 hour after administration
[4] = 3 hours after administration, read-out: ED50 at 3 hours after administration
[5] = 5 hours after administration, read-out: ED50 at 5 hours after administration

SMILES	activity at 6.5 mg/kg ([1]; Rattus norvegicus, po, A 6.5 mg/kg, B 0 p.o. (relative dosage 1 : 0))	ED50 [2, 3]	ED50 [2, 4]	ED50 [2, 5]	% activity ([1]; A 0, B 3.6 mg/kg p.o. (relative dosage 0 : 1))	percentage printed in parentheses beside the ED50 at 5 hours (not explained) ([2]; p.o., 5 hours after administration)
Cc1ccc2c(-c3ccc(F)cc3)nc(=O)n(C(C)C)c2c1 [Component A, 1-Isopropyl-4-(4-fluorophenyl)-7-methyl-2(1H)-quinazolinone]	50%	~18 mg/kg	6.5 mg/kg	7 mg/kg	–	–
Clc1ccc2nsnc2c1NC1=NCCN1 [Component B, 5-chloro-4-(2-imidazolin-2-ylamino)-2,1,3-benzothiadiazole]	–	~1.8 mg/kg	3.6 mg/kg	~10 mg/kg	50%	-60%
